Laboratory results reported in patent publication US7105725B2, “Pathogen resistant transgenic plants expressing CEMA or CEMA-related peptides” (University of Victoria Innovation and Development …, priority 1999, dated 2006).

What was measured:
[1] = tested on: E. coli; experiment: anti-bacterial assay (colony count after 4 h with serially diluted peptide); type: cell-based, Escherichia coli DH5α
Protocol: The antibacterial activity of a given CEMA and/or CEMA-related peptide can be assessed conveniently by determining the ability of the peptide to inhibit the growth of a pectinolytic bacterial strain such as Erwinia carotovora or even Escherichia coli DH5α. The activity of a given peptide is determined by serially diluting the peptide in Luria-Bertaini (LB) medium and 100-μL aliquots of the resulting titers into wells of a 96-well microtiter plate. A fresh bacterial culture (˜0.3 A550) is then grown on LB medium (1% w/v tryptone and 0.5% w/v yeast extract) and diluted to 10^−2 in LB to represent approximately 10^4–10^5 colony forming units (CFU)mL^−1. 10 μL of the bacterial culture are then inoculated into each well containing the peptide and the samples are incubated at 37° C. for 4 hours. The well contents are then diluted in LB, plated on LB agar, and incubated overnight at an appropriate temperature. […] The colonies are counted, and the antibacterial activity of the peptide under test is determined by comparison to the control plate.
The CEMA or CEMA-related peptide is determined to have biological activity if, under the conditions of this assay, the peptide is capable of inhibiting bacterial growth by at least 10% (compared to the control) at a concentration of 7 μg per mL (i.e., at this concentration, the number of bacterial colonies is no more than 90% that of the control plate).

[2] = tested on: susceptible microorganisms; settings: cited from earlier work

Substance: KWKLFKKIGIGAVLKVLTTGLPALKLTK [CEMA]
- concentration that kills 50% of bacterial cells [1]: 4.5 µg/mL

Substance: mellitin
- antimicrobial activity [2]: potent antimicrobial activity
